Assay results published in US9381191B2, “Imidazopyridine derivatives useful in treating diabetes” (METABRAIN RESEARCH, priority 2012, dated 2016).
Structures can show the parent of a compound that is named as a salt.

How the values were obtained:
isolated rat hepatocytes = experiment: Hepatic production of glucose, 3 h incubation; format: cell-based, Wistar rat; settings: for activity at 50 µM / activity at 100 µM: Hepatocyte, rat hepatocytes; for activity at 50 µM: read-out: HGP % of ctrl @ 50 μM; for activity at 100 µM: read-out: HGP % of ctrl @ 100 μM
Description: The hepatocytes are isolated from Wistar rat liver having fasted for 24 h after perfusion of collagenase in the portal vein. 1) The freshly isolated hepatocytes are sown in 6-well plates coated with collagen and containing an adhesion medium (Williams Medium). After adhesion, the medium is replaced with RPMI 1640 medium without any glucose, containing hydrocortisone (7·10^−5M) for a duration from 16 to 18 h. The next day, the glucose hepatic production test is conducted in a Krebs medium for 3 h. The basal conditions are cells incubated with only Krebs, the stimulated conditions are the cells placed in Krebs+lactate+pyruvate, the produced conditions are the cells exposed to chemical compounds in a Krebs/lactate/pyruvate medium. In the case when the compounds are dissolved in DMSO, all the conditions of the tests are met in the presence of a final concentration of 0.1% DMSO. The positive control of the test is the mercaptopicolinate known for its inhibitory action on hepatic production of glucose via the phosphoenolpyruvate carboxykinase. For short term treatments, the compounds are incubated for 3 h. For long term treatments, the compounds are incubated for 20 h at the moment when the hepatocytes are cultivated in RPMI and then added during the hepatic production test for 3 h. At the end of the 3 hours of incubation, the supernatant is recovered for measurement of glucose with a colorimetric method using glucose oxidase. The cells are lysed with a 0.1% NaOH aqueous solution in order to measure the amount of protein with the Lowry method. The results are expressed in mmol of glucose per mg of protein.

INS-1 cells = experiment: Stimulation test of insulin secretion by INS-1 cells; format: cell-based; settings: Rattus norvegicus, INS1, 1 h, insulin secretion by INS-1 cells in response to glucose; for insulin secretion, % of control at 10 µM: read-out: HGP % of ctrl @ 10 μM; for insulin secretion, % of control at 50 µM: read-out: HGP % of ctrl @ 50 μM
Description: The different compounds were tested on an INS-1 beta-pancreatic line in order to evaluate their capability of potentializing the insulin secretion in response to glucose. Very briefly, the cells are cultivated in a culture medium, RPMI 1640 with 10 mM glucose containing 1 mM of sodium pyruvate, 50 μM of 2-mercaptoethanol, 2 mM of glutamine, 10 mM of HEPES, 100 IU/ml of penicillin, 100 μg/ml of streptomycin and 10% of inactivated fetal calf serum, as described by Asfari et al.. For the insulin secretion test, the INS-1 cells are sown and cultivated in 96-well plates. After 3 days of cultivation at 37° C. in a humid atmosphere (95% air/5% CO2), the medium is removed and the cells are incubated for 16 h in a medium containing 5 mM of glucose and 1% of inactivated fetal calf serum. On the day of the test, the cells are washed with a Krebs buffer (pH 7.4) containing 0.1% of bovine albumin and then pre-incubated for 30 min at 37° C. in this same buffer containing 2.8 mM of glucose. Finally, the cells are again washed with Krebs buffer and then incubated for 1 h in the buffer of the secretion test (Krebs, pH 7.4 containing 0.1% of bovine albumin and 3.5 mM of glucose and molecules to be evaluated). At the end of the test, the cell supernatant is recovered in order to measure therein the secreted insulin, by means of an ELISA kit using a rat anti-insulin antibody (ELISA Alpco Cat no. 80-INSRTH-E10). Each condition is tested in triplicate. The 3.5 mM glucose, the 10^−7M GLP-1 and the Forskoline 10^−7/IBMX 10^−5M mixtures are used as positive controls of the test. A compound stimulates the secretion of insulin if this factor is greater than or equal to 130% of the control for a given glucose dose.

CCOC(=O)COCc1nc2ccccn2c1C#Cc1ccccc1 [Derivative 1, ethyl 2-((3-(phenylethynyl)-imidazo[1,2-a]pyridin-2-yl)-methoxy)acetate] gave an activity at 50 µM (isolated rat hepatocytes) of 70%, an activity at 100 µM (isolated rat hepatocytes) of 56% and an insulin secretion, % of control at 10 µM (INS-1 cells) of 121%. For the same compound, the insulin secretion, % of control at 50 µM (INS-1 cells) was 211%.

CCOC(=O)COCc1nc2ccccn2c1C#Cc1ccc(C)cc1 [Derivative 2, ethyl 2-((3-(p-tolylethynyl)-imidazo[1,2-a]pyridin-2-yl)-methoxy)acetate] showed an insulin secretion, % of control at 10 µM (INS-1 cells) of 127% and an insulin secretion, % of control at 50 µM (INS-1 cells) of 333%.

With CCOC(=O)COCc1nc2ccccn2c1C#Cc1ccc(F)cc1 [Derivative 3, ethyl 2-((3-((4-fluorophenyl)-ethynyl)imidazo[1,2-a]pyridin-2-yl)methoxy)acetate] the activity at 50 µM (isolated rat hepatocytes) was 73%, the activity at 100 µM (isolated rat hepatocytes) was 60% and the insulin secretion, % of control at 10 µM (INS-1 cells) was 130%. The insulin secretion, % of control at 50 µM (INS-1 cells) was 472%.

Compound CCOC(=O)COCc1nc2ccccn2c1C#Cc1ccc([N+](=O)[O-])cc1 [Derivative 5, ethyl 2-((3-((4-nitrophenyl)-ethynyl)imidazo[1,2-a]pyridin-2-yl)methoxy)acetate] has an insulin secretion, % of control at 10 µM (INS-1 cells) of 180% and an insulin secretion, % of control at 50 µM (INS-1 cells) of 195%.

In the case of CCOC(=O)COCc1nc2ccccn2c1C#Cc1ccsc1 [Derivative 9, ethyl 2-((3-(thiophen-3-ylethynyl)-imidazo[1,2-a]pyridin-2-yl)methoxy)acetate], the insulin secretion, % of control at 10 µM (INS-1 cells) was 116% and the insulin secretion, % of control at 50 µM (INS-1 cells) was 175%.

Work on CCOC(=O)COCc1nc2ccccn2c1C#Cc1cccc(C#N)c1 [Derivative 14, ethyl 2-((3-((3-cyanophenyl)-ethynyl)imidazo[1,2-a]pyridin-2-yl)methoxy)acetate] yielded an activity at 50 µM (isolated rat hepatocytes) of 86%, an activity at 100 µM (isolated rat hepatocytes) of 73% and an insulin secretion, % of control at 10 µM (INS-1 cells) of 100%. The insulin secretion, % of control at 50 µM (INS-1 cells) was 242%.

In the case of CCOC(=O)COCc1nc2ccccn2c1C#Cc1ccccc1F [Derivative 25, ethyl 2-((3-((2-fluorophenyl)-ethynyl)imidazo[1,2-a]pyridin-2-yl)methoxy)acetate], the activity at 50 µM (isolated rat hepatocytes) was 83%, the activity at 100 µM (isolated rat hepatocytes) was 73% and the insulin secretion, % of control at 10 µM (INS-1 cells) was 134%. It also gave an insulin secretion, % of control at 50 µM (INS-1 cells) of 226%.

CCOC(=O)COCc1nc2ccccn2c1C#Cc1ccccc1C(F)(F)F [Derivative 26, ethyl 2-((3-((2-(trifluoromethyl)-phenyl)ethynyl)imidazo[1,2-a]pyridin-2-yl)methoxy)acetate] was tested, and the activity at 50 µM (isolated rat hepatocytes) was 78%, the activity at 100 µM (isolated rat hepatocytes) was 67% and the insulin secretion, % of control at 10 µM (INS-1 cells) was 138%. It also gave an insulin secretion, % of control at 50 µM (INS-1 cells) of 246%.

In the case of O=C(O)COCc1nc2ccccn2c1C#Cc1ccc(OC(F)(F)F)c(F)c1 [Derivative 39, 2-((3-((3-fluoro-4-(trifluoro-methoxy)phenyl)ethynyl)imidazo [1,2-a]pyridin-2-yl)methoxy)acetic acid], the insulin secretion, % of control at 10 µM (INS-1 cells) was 121% and the insulin secretion, % of control at 50 µM (INS-1 cells) was 137%.

CN(C)CCNC(=O)COCc1nc2ccccn2c1C#Cc1cccc(C(F)(F)F)c1 [Derivative 55, N-(2-(dimethylamino)ethyl)-2-((3-((3-(trifluoromethyl)-phenyl)ethynyl)imidazo[1,2-a]-pyridin-2-yl)methoxy)acetamide] gave an insulin secretion, % of control at 10 µM (INS-1 cells) of 130% and an insulin secretion, % of control at 50 µM (INS-1 cells) of 135%.

With O=C(COCc1nc2ccccn2c1C#Cc1ccc(F)cc1)NO [Derivative 59, 2-((3-((4-fluorophenyl)ethynyl)-imidazo[1,2-a]pyridin-2-yl)methoxy)-N-hydroxy acetamide] the activity at 50 µM (isolated rat hepatocytes) was 97%, the activity at 100 µM (isolated rat hepatocytes) was 45% and the “inhibition of hepatic production of glucose” value (“inhibition” below) (isolated rat hepatocytes; dose of 100 μM) was “strongest inhibitions”. The insulin secretion, % of control at 10 µM (INS-1 cells) was 134% and the insulin secretion, % of control at 50 µM (INS-1 cells) was 220%.

Compound COC(=O)CN(C)Cc1nc2ccccn2c1C#Cc1cccc(C(F)(F)F)c1 [Derivative 72, methyl 2-(methyl((3-((3-(trifluoromethyl)-phenyl)ethynyl)-imidazo[1,2-a]pyridin-2-yl)methyl)amino)acetate] has an insulin secretion, % of control at 10 µM (INS-1 cells) of 172% and an insulin secretion, % of control at 50 µM (INS-1 cells) of 151%.

COC(=O)c1ccccc1OCc1nc2ccccn2c1C#Cc1ccc(F)cc1 [Derivative 76, methyl 2-((3-((4-fluorophenyl)-ethynyl)imidazo[1,2-a]pyridin-2-yl)methoxy)benzoate] was tested, and the activity at 50 µM (isolated rat hepatocytes) was 67%, the activity at 100 µM (isolated rat hepatocytes) was 59% and the “inhibition” value (isolated rat hepatocytes; dose of 100 μM) was “strongest inhibitions”. It also gave an insulin secretion, % of control at 10 µM (INS-1 cells) of 156% and an insulin secretion, % of control at 50 µM (INS-1 cells) of 202%.

In the case of COC(=O)c1ccccc1OCc1nc2ccccn2c1C#Cc1ccccc1 [Derivative 78, methyl 2-((3-(phenylethynyl)-imidazo[1,2-a]pyridin-2-yl)methoxy)benzoate], the activity at 50 µM (isolated rat hepatocytes) was 51%, the activity at 100 µM (isolated rat hepatocytes) was 44% and the “inhibition” value (isolated rat hepatocytes; with two doses) was “strongest inhibitions”. For the same compound, the insulin secretion, % of control at 10 µM (INS-1 cells) was 197% and the insulin secretion, % of control at 50 µM (INS-1 cells) was 152%.

COC(=O)c1ccccc1OCc1nc2ccccn2c1C#Cc1cccc(C#N)c1 [Derivative 79, methyl 2-((3-((3-cyanophenyl)-ethynyl)imidazo[1,2-a]pyridin-2-yl)methoxy)benzoate] gave an activity at 50 µM (isolated rat hepatocytes) of 86%, an activity at 100 µM (isolated rat hepatocytes) of 74% and an insulin secretion, % of control at 10 µM (INS-1 cells) of 128%. For the same compound, the insulin secretion, % of control at 50 µM (INS-1 cells) was 152%.

For COC(=O)c1cccc(OCc2nc3ccccn3c2C#Cc2cccc(C(F)(F)F)c2)c1 [Derivative 81, methyl 3-((3-((3-(trifluoromethyl)-phenyl)ethynyl)imidazo[1,2-a]pyridin-2-yl)methoxy)benzoate], the activity at 50 µM (isolated rat hepatocytes) was 76%, the activity at 100 µM (isolated rat hepatocytes) was 47% and the “inhibition” value (isolated rat hepatocytes; dose of 100 μM) was “strongest inhibitions”. It also gave an insulin secretion, % of control at 10 µM (INS-1 cells) of 142% and an insulin secretion, % of control at 50 µM (INS-1 cells) of 134%.

With CCOC(=O)CN(C)Cc1nc2ccccn2c1C#Cc1cccc(C(F)(F)F)c1 [Derivative 101, ethyl 2-[methyl-[[3-[2-[3-(trifluoromethyl)phenyl]ethynyl]imidazo[1,2-a]pyridin-2-yl]-methyl]amino]acetate hydrochloride] the insulin secretion, % of control at 10 µM (INS-1 cells) was 163% and the insulin secretion, % of control at 50 µM (INS-1 cells) was 111%.

In the case of CCOC(=O)CN(C)Cc1nc2ccc(Cl)cn2c1C#Cc1cccc(C(F)(F)F)c1 [Derivative 102, ethyl 2-[[6-chloro-3-[2-[3-(trifluoromethyl)phenyl]ethynyl]imidazo[1,2-a]pyridin-2-yl]methyl-methyl-amino]acetate], the insulin secretion, % of control at 10 µM (INS-1 cells) was 176% and the insulin secretion, % of control at 50 µM (INS-1 cells) was 107%.

CCOC(=O)[C@@H](N)CSCc1nc2ccccn2c1C#Cc1cccc(C(F)(F)F)c1 [Derivative 113, ethyl (2R)-2-amino-3-[[3-[2-[3-(trifluoromethyl)phenyl]ethynyl]imidazo[1,2-a]pyridin-2-yl]methyl-sulfanyl]propanoate] showed an insulin secretion, % of control at 10 µM (INS-1 cells) of 136% and an insulin secretion, % of control at 50 µM (INS-1 cells) of 112%.

CC(C)(CO)C(OCc1nc2ccccn2c1C#Cc1cccc(C(F)(F)F)c1)C(=O)O (stereo not shown) [Derivative 129, 4-hydroxy-3,3-dimethyl-2-[[3-[2-[3-(trifluoromethyl)phenyl]ethynyl]imidazo[1,2-a]pyridin-2-yl]methoxy]butanoic acid] gave an insulin secretion, % of control at 10 µM (INS-1 cells) of 109% and an insulin secretion, % of control at 50 µM (INS-1 cells) of 146%.

COc1cccn2c(C#Cc3cccc(C(F)(F)F)c3)c(CSCCO)nc12 [Derivative 130, 2-[[8-methoxy-3-[2-[3-(trifluoromethyl)phenyl]ethynyl]imidazo[1,2-a]pyridin-2-yl]methylsulfanyl]ethanol] was tested, and the insulin secretion, % of control at 10 µM (INS-1 cells) was 150% and the insulin secretion, % of control at 50 µM (INS-1 cells) was 114%.

Work on OCCSCc1nc2ccc(Cl)cn2c1C#Cc1cccc(C(F)(F)F)c1 [Derivative 131, 2-[[6-chloro-3-[2-[3-(trifluoromethyl)phenyl]ethynyl]imidazo[1,2-a]pyridin-2-yl]methylsulfanyl]ethanol] yielded an insulin secretion, % of control at 10 µM (INS-1 cells) of 131%.
